Assays:
Rhino mice = experiment: Epidermal thickness of Rhino mice after 3 weeks of daily topical administration (histological analysis); format: in vivo, mouse; details: for API-Treated Epidermal Thickness (% Vehicle): 70% ethanol/30% propylene glycol, mean ± SEM
Protocol: Methods. Animals and dose administration. Rhino mice 6-8 weeks old were dosed daily via the topical route. The mice were weighed three times per week. Doses of API were adjusted weekly based on body weight. The topical formulations dosage forms were made by mixing the API with two different topical carriers. One topical carrier consisted of 70 vol % propylene glycol and 30 vol % ethanol. The other topical carrier consisted of 30 vol % propylene glycol and 70 vol % ethanol. The topical vehicle control for a given comparative example was the vehicle carrier used in the API-formulated topical dosage form. Animals were euthanized 72 hours after administration of the final topical dose, and dorsal skin was collected for histological analysis.
Measurement of epidermal thickness.
Epidermal thickness was determined by histological analysis of tissue sections. Skin was fixed overnight in 4% paraformaldehyde at 4° C. with gentle agitation. The skin was dehydrated the following day in 100% methanol. Samples were embedded in paraffin. Nine sections, each measuring 10 μm and each separated by 150 μm, were taken from each mouse and stained with hematoxylin and eosin stain. Five of the nine sections were digitally imaged (6× magnification) for analysis of the epidermal thickness using Metamorph Imaging Software (single line function).
The thickness of the epidermis adjacent to each comedone (open or healed) on each respective image of the five sections was also then measured using a Wacom Intuos 3 Graphics Tablet interfaced with the software. The average width was determined for each Rhino mouse from multiple measurements. Individual epidermal thickness average was determined from a composite of measurements taken from all 5 images. Such average for each mouse was used to calculate the treatment group mean. Results in the figures are expressed in terms of mean±standard error of the mean.
Preparation of topical formulations and dosage forms containing the various API's including 2MBis P, CAGE-3, 24R-2MD2, VitIII (17-20E), NEL, VD-03, 2MPregna, 2MP, 20R-2MBisP, 2MTrisP, FF-44, FF-55, HPBS and 13Me2. Separate concentrated ethanolic stock solutions of each API were diluted to a predetermined dose concentration using a topical carrier vehicle. Two different carrier vehicles were used. One topical carrier consisted of 70 vol % propylene glycol and 30 vol % ethanol. The other topical carrier consisted of 30 vol % propylene glycol and 70 vol % ethanol. The vehicle was thoroughly mixed with the API. The topical dosing formulation and dosage form delivered a predetermined amount of API on a per kilogram body weight basis.
A 100 μL dose was administered to the back of the mouse. An average weight of 24-30 g/mouse was assumed initially in the dose volume calculations. Dosing volumes were adjusted weekly to deliver the predetermined desired dose amount of API based on the body weight of each animal.

keratinocytes in culture = details: cited from earlier work
hairless C3H mouse = details: topical administration to skin of hairless C3H mouse; cited from earlier work
[1] = 217 nmole/kgBW/day topical, 3 weeks, 70 vol. % ethanol/30 vol. % propylene glycol
[2] = 694 nmole/kgBW/day topical, 3 weeks, 70 vol. % ethanol/30 vol. % propylene glycol
[3] = topical API dose 217 nmol/kg daily, 3 weeks
[4] = topical API dose 694 nmol/kg daily, 3 weeks

C=C1[C@H](O)CC(=C/C=C2\CCC[C@]3(C)[C@@H]([C@@H](C)CC)CC[C@@H]23)C[C@H]1O [2MBisP, 2-methylene-19-nor-20(S)-1α-hydroxy-bishomopregnacalciferol]
epidermal thickness as compared to the vehicle control (in words) (Rhino mice; [1]): significant increase in epidermal thickness
epidermal thickness as compared to the vehicle control (in words) (Rhino mice; [2]): significant increase in epidermal thickness
potency at increasing epidermal thickness relative to 20R-2MBisP (Rhino mice; doses of 217 and 694 nmole/kgBW/day topical, 3 weeks): approximately one-half log more potent
API-Treated Epidermal Thickness (% Vehicle) (Rhino mice; [3]): 220 ± 8 % Vehicle
API-Treated Epidermal Thickness (% Vehicle) (Rhino mice; [4]): 231 ± 6 % Vehicle

C=C1[C@H](O)CC(=C/C=C2\CCC[C@]3(C)[C@@H]([C@@H](C)CCC)CC[C@@H]23)C[C@H]1O [2MTrisP, 2-methylene-(20S)-19-nor-1α-hydroxy-trishomopregnacalciferol]
epidermal thickness as compared to the vehicle control (in words) (Rhino mice; [1]): significant increase in epidermal thickness
API-Treated Epidermal Thickness (% Vehicle) (Rhino mice; [3]): 221 ± 15 % Vehicle

C=C1/C(=C\C=C2/CCC[C@]3(C)[C@@H]([C@H](C)CCCC(C)(C)O)CC[C@@H]23)C[C@@H](O)C[C@@H]1O [1,25(OH)2D3, 1α,25-dihydroxy-vitamin D3]
proliferation of keratinocytes (keratinocytes in culture): inhibit the proliferation
epidermal thickness as compared to the vehicle-only control (in words) (Rhino mice; 6 nmole/kgBW daily topical, 3 weeks, 70 vol. % ethanol/30 vol. % propylene glycol): very modest increase in epidermal thickness
API-Treated Epidermal Thickness (% Vehicle) (Rhino mice; topical API dose 6.0 nmol/kg daily, 3 weeks): 118 ± 7 % Vehicle
epidermal proliferation (hairless C3H mouse): induce epidermal proliferation
epidermal thickness (hairless C3H mouse): increase epidermal thickness

C=C1[C@H](O)CC(=C/C=C2\CCC[C@@]3(C)C2CCC3[C@H](C)CC(F)F)C[C@H]1O (stereo partly drawn) [FF-44, 2-methylene-(20R)-23,23-difluoro-1α-hydroxy-19-nor-bishomopregnacalciferol]
epidermal thickness as compared to the vehicle control (in words) (Rhino mice; [1]): significant increase in epidermal thickness
API-Treated Epidermal Thickness (% Vehicle) (Rhino mice; [3]): 206 ± 22 % Vehicle

C=C1[C@H](O)CC(=C/C=C2\CCC[C@]3(C)[C@@H]([C@H](C)CCC[C@H](C)O)CC[C@@H]23)C[C@H]1O [NEL, 2-methylene-(20R,25S)-19,26-dinor-1α,25-dihydroxyvitamin D3]
epidermal thickness, dose dependence (in words) (Rhino mice; 7.5 and 25 nmole/kgBW/day topical, 3 weeks, 70 vol. % ethanol/30 vol. % propylene glycol): dose-dependent increase in epidermal thickness
API-Treated Epidermal Thickness (% Vehicle) (Rhino mice; topical API dose 7.5 nmol/kg daily, 3 weeks): 145 ± 4 % Vehicle
API-Treated Epidermal Thickness (% Vehicle) (Rhino mice; topical API dose 25 nmol/kg daily, 3 weeks): 189 ± 11 % Vehicle

C=C1[C@H](O)CC(=C/C=C2\CCC[C@@]3(C)C2CCC3[C@@H](C)CC(F)F)C[C@H]1O (stereo partly drawn) [FF-55, 2-methylene-(20S)-23,23-difluoro-1α-hydroxy-19-nor-bishomopregnancalciferol]
epidermal thickness as compared to the vehicle control (in words) (Rhino mice; [1]): significant increase in epidermal thickness
API-Treated Epidermal Thickness (% Vehicle) (Rhino mice; [3]): 225 ± 9 % Vehicle

C=C1C(O)CC(=CC=C2CCCC3(C)C2CCC3C(C)C)CC1O (stereo not drawn) [2MP, 1α-hydroxy-2-methylene-19-nor-homopregnacalciferol]
epidermal thickness as compared to the vehicle control (in words) (Rhino mice; [1]): significant increase in epidermal thickness
API-Treated Epidermal Thickness (% Vehicle) (Rhino mice; [3]): 207 ± 8 % Vehicle

C=C1[C@H](O)CC(=C/C=C2\CCC[C@]3(C)C(CC)CCC23)C[C@H]1O (stereo partly drawn) [2MPregna, 2-methylene-19-nor-1α-hydroxy-pregnacalciferol]
epidermal thickness as compared to the vehicle control (in words) (Rhino mice; [1]): significant increase in epidermal thickness
API-Treated Epidermal Thickness (% Vehicle) (Rhino mice; [3]): 183 ± 8 % Vehicle

C=C1[C@H](O)CC(=C/C=C/CC(C)(C)C[C@@H](C)CCCC(C)(C)O)C[C@H]1O [13Me2, 13,13-dimethyl-des-C,D analog of (20S)-2-methylene-1α,25-dihydroxy-19-nor-vitamin D3]
epidermal thickness as compared to the vehicle control (in words) (Rhino mice; [1]): significant increase in epidermal thickness
API-Treated Epidermal Thickness (% Vehicle) (Rhino mice; [3]): 229 ± 12 % Vehicle

C=C1[C@H](O)CC(=C/C=C2\CCC[C@]3(C)[C@@H]([C@@H](C)CCCC4(O)CCCC4)CC[C@@H]23)C[C@H]1O [CAGE-3, 19-nor-26,27-dimethylene-20(S)-2-methylene-1α,25-dihydroxyvitamin D3]
epidermal thickness as compared to the vehicle control (in words) (Rhino mice; 0.9 ng/day (ca. 100 picomole/kgBW/day), 0.45 ng/day from day 10, 0.22 ng/day (25 picomole/kgBW/day) from day 19, vehicle 30 vol. % ethanol/70 vol. % propylene glycol): increase in epidermal thickness
epidermal thickness compared to the vehicle control (in words) (Rhino mice; lowest dose 0.0079 nmol/kgBW daily topical, 3 weeks, 70 vol. % ethanol/30 vol. % propylene glycol): some increase in epidermal thickness
epidermal thickness as compared to the control vehicle (in words) (Rhino mice; three higher doses 0.025, 0.079 and 0.25 nmol/kgBW daily topical, 3 weeks, 70 vol. % ethanol/30 vol. % propylene glycol): significant increase in epidermal thickness
API-Treated Epidermal Thickness (% Vehicle) (Rhino mice; topical API dose 0.025 nmol/kg daily, 3 weeks): 162 ± 11 % Vehicle
API-Treated Epidermal Thickness (% Vehicle) (Rhino mice; topical API dose 0.079 nmol/kg daily, 3 weeks): 274 ± 14 % Vehicle
API-Treated Epidermal Thickness (% Vehicle) (Rhino mice; topical API dose 0.25 nmol/kg daily, 3 weeks): 293 ± 8 % Vehicle

C=C1[C@H](O)CC(=C/C=C2\CCC[C@]3(C)/C(=C(\C)CCCC(C)(C)O)CC[C@@H]23)C[C@H]1O [Vit-III 17-20E, 2-methylene-1α,25-dihydroxy-(17E)-17(20)-dehydro-19-nor-vitamin D3]
epidermal thickness as compared to the vehicle control (in words) (Rhino mice; 24.1 nmole/kgBW/day topical, 3 weeks, 70 vol. % ethanol/30 vol. % propylene glycol): significant increase in epidermal thickness
API-Treated Epidermal Thickness (% Vehicle) (Rhino mice; topical API dose 24 nmol/kg daily, 3 weeks): 216 ± 13 % Vehicle

C=C1[C@H](O)CC(=C/C=C2\CCC[C@]3(C)C([C@H](C)/C=C/[C@@H](C)C(C)(C)O)CC[C@@H]23)C[C@H]1O (stereo partly drawn) [(24R)2MD2, 2-methylene-19-nor-(24R)-1α,25-dihydroxyvitamin D2]
epidermal thickness as compared to the vehicle control (in words) (Rhino mice; 2.33 nmole/kgBW/day topical, 3 weeks, 70 vol. % ethanol/30 vol. % propylene glycol): significant increase in epidermal thickness
API-Treated Epidermal Thickness (% Vehicle) (Rhino mice; topical API dose 2.3 nmol/kg daily, 3 weeks): 189 ± 13 % Vehicle

C=C1[C@H](O)CC(=C/C=C2\CCC[C@@H]3[C@@H]([C@@H](C)CCCC(C)(C)O)CC[C@@H]23)C[C@H]1O [VD-03, 2-methylene-18,19-dinor-(20S)-1α,25-dihydroxyvitamin D3]
API-Treated Epidermal Thickness (% Vehicle) (Rhino mice; topical API dose 0.62 nmol/kg daily, 3 weeks): 225 ± 6 % Vehicle

CC(C)C[C@H](C)[C@H]1CC[C@H]2/C(=C/C=C3C[C@@H](O)C(=CCCO)[C@H](O)C3)CCC[C@]12C [HPBS, 2-(3′hydroxypropyl-1′,2′-idene)-19,23,24-trinor-(20S)-1α-hydroxyvitamin D3]
epidermal thickness as compared to the control vehicle (in words) (Rhino mice; 217 nmole/kgBW/day for 3 days (2 mice) or 10 days (4 mice), then 122 nmole/kgBW/day, 3 weeks daily topical, 70 vol. % ethanol/30 vol. % propylene glycol): significant increase in epidermal thickness
API-Treated Epidermal Thickness (% Vehicle) (Rhino mice; topical API dose 217 to 122 nmol/kg daily (dose changed on day 10), 3 weeks): 189 ± 13 % Vehicle

C=C1[C@H](O)CC(=C/C=C2\CCC[C@]3(C)[C@@H]([C@H](C)CC)CC[C@@H]23)C[C@H]1O [20R-2MBisP, (20R)-1α-hydroxy-2-methylene-19-nor-bishomopregnacalciferol]
epidermal thickness as compared to the vehicle control (in words) (Rhino mice; [1]): some increase in epidermal thickness
epidermal thickness as compared to the vehicle control (in words) (Rhino mice; [2]): significant increase in epidermal thickness
API-Treated Epidermal Thickness (% Vehicle) (Rhino mice; [3]): 155 ± 7 % Vehicle
API-Treated Epidermal Thickness (% Vehicle) (Rhino mice; [4]): 209 ± 13 % Vehicle

Reference: US8143238B2, “Methods of increasing epidermal skin thickness by topical administration of a 19-nor containing vitamin D compound” (Wisconsin Alumni Research Foundation, priority 2008, dated 2012)
